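48-hour exposure; five concentrations; linearly interpolated endpoints. The concentration for 50% growth inhibition is given as GI50.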 Active and inactive are the calls of the source. No stated cut-off is given here; in the data, active = GI50 up to about 1.1 µM and inactive = higher.
Legend:
Test in all cases: inhibition of tumour cell growth, NCI panel, 48 h
786-0 = tested on: 786-0
A498 = tested on: A498
A549 = tested on: A549
ACHN = tested on: ACHN
CAKI-1 = tested on: CAKI-1
CCRF-CEM = tested on: CCRF-CEM
COLO 205 = tested on: COLO 205
DLD-1 = tested on: DLD-1
DMS-114 = tested on: DMS-114
DMS-273 = tested on: DMS-273
EKVX = tested on: EKVX
HCC 2998 = tested on: HCC 2998
HCT-116 = tested on: HCT-116
HCT-15 = tested on: HCT-15
HL-60 = tested on: HL-60
HOP-18 = tested on: HOP-18
HOP-62 = tested on: HOP-62
HOP-92 = tested on: HOP-92
HT-29 = tested on: HT-29
IGROV-1 = tested on: IGROV-1
K562 = tested on: K562
KM-20L2 = tested on: KM-20L2
KM12 = tested on: KM12
LOX IMVI = tested on: LOX IMVI
LXFL 529 = tested on: LXFL 529
M14 = tested on: M14
M19-MEL = tested on: M19-MEL
MOLT-4 = tested on: MOLT-4
Malme-3M = tested on: Malme-3M
NCI-H226 = tested on: NCI-H226
NCI-H23 = tested on: NCI-H23
NCI-H460 = tested on: NCI-H460
NCI-H522 = tested on: NCI-H522
OVCAR-3 = tested on: OVCAR-3
OVCAR-4 = tested on: OVCAR-4
OVCAR-5 = tested on: OVCAR-5
OVCAR-8 = tested on: OVCAR-8
RPMI-8226 = tested on: RPMI-8226
RXF 393 = tested on: RXF 393
RXF 631 = tested on: RXF 631
SF-268 = tested on: SF-268
SF-295 = tested on: SF-295
SF-539 = tested on: SF-539
SK-MEL-28 = tested on: SK-MEL-28
SK-MEL-2 = tested on: SK-MEL-2
SK-MEL-5 = tested on: SK-MEL-5
SK-OV-3 = tested on: SK-OV-3
SN12C = tested on: SN12C
SNB-19 = tested on: SNB-19
SNB-75 = tested on: SNB-75
SNB-78 = tested on: SNB-78
SR = tested on: SR
SW-620 = tested on: SW-620
TK-10 = tested on: TK-10
U-251 = tested on: U-251
UACC-257 = tested on: UACC-257
UACC-62 = tested on: UACC-62
UO-31 = tested on: UO-31
XF498 = tested on: XF498

`CC1(C)COC(c2ccc(C(F)(F)F)cc2C(O)c2ccc3ccccc3c2)=N1` (configuration not stated) was tested, and the GI50 (786-0) was > 10 µM (inactive), the GI50 (A498) was > 10 µM (inactive) and the GI50 (A549) was 99.5 µM (inactive). For the same compound, the GI50 (ACHN) was > 10 µM (inactive), the GI50 (CAKI-1) was 94.6 µM (inactive) and the GI50 (CCRF-CEM) was > 10 µM (inactive). For the same compound, the GI50 (COLO 205) was > 10 µM (inactive), the GI50 (DLD-1) was > 10 µM (inactive) and the GI50 (DMS-114) was > 10 µM (inactive). For the same compound, the GI50 (DMS-273) was > 10 µM (inactive), the GI50 (EKVX) was > 10 µM (inactive) and the GI50 (HCC 2998) was > 10 µM (inactive). For the same compound, the GI50 (HCT-116) was > 10 µM (inactive), the GI50 (HCT-15) was over 10 µM and the GI50 (HL-60) was 78.3 µM (inactive). The GI50 (HOP-18) was > 10 µM (inactive), the GI50 (HOP-62) was > 10 µM (inactive) and the GI50 (HOP-92) was 41.4 µM (inactive). The GI50 (HT-29) was > 10 µM (inactive), the GI50 (IGROV-1) was > 10 µM (inactive) and the GI50 (K562) was > 10 µM (inactive). The GI50 (KM-20L2) was > 10 µM (inactive), the GI50 (KM12) was > 10 µM (inactive) and the GI50 (LOX IMVI) was > 10 µM (inactive). The GI50 (LXFL 529) was > 10 µM (inactive), the GI50 (M14) was > 10 µM (inactive) and the GI50 (M19-MEL) was > 10 µM (inactive). For the same compound, the GI50 (MOLT-4) was > 10 µM (inactive), the GI50 (Malme-3M) was > 10 µM (inactive) and the GI50 (NCI-H226) was 51.3 µM (inactive). For the same compound, the GI50 (NCI-H23) was 28.9 µM (inactive), the GI50 (NCI-H460) was > 10 µM (inactive) and the GI50 (NCI-H522) was > 10 µM (inactive). The GI50 (OVCAR-3) was > 10 µM (inactive), the GI50 (OVCAR-4) was > 10 µM (inactive) and the GI50 (OVCAR-5) was > 10 µM (inactive). For the same compound, the GI50 (OVCAR-8) was > 10 µM (inactive), the GI50 (RPMI-8226) was > 100 µM (inactive) and the GI50 (RXF 393) was 16 µM (inactive). The GI50 (RXF 631) was > 100 µM (inactive), the GI50 (SF-268) was 82 µM (inactive) and the GI50 (SF-295) was 20.7 µM (inactive). For the same compound, the GI50 (SF-539) was 64.4 µM (inactive), the GI50 (SK-MEL-28) was > 10 µM (inactive) and the GI50 (SK-MEL-2) was > 10 µM (inactive). The GI50 (SK-MEL-5) was > 10 µM (inactive), the GI50 (SK-OV-3) was > 10 µM (inactive) and the GI50 (SN12C) was > 10 µM (inactive). The GI50 (SNB-19) was 57.8 µM (inactive), the GI50 (SNB-75) was 15.8 µM (inactive) and the GI50 (SNB-78) was 89.3 µM (inactive). For the same compound, the GI50 (SR) was > 10 µM (inactive), the GI50 (SW-620) was > 10 µM (inactive) and the GI50 (TK-10) was > 10 µM (inactive). For the same compound, the GI50 (U-251) was > 10 µM (inactive), the GI50 (UACC-257) was > 10 µM (inactive) and the GI50 (UACC-62) was > 10 µM (inactive). For the same compound, the GI50 (UO-31) was > 10 µM (inactive) and the GI50 (XF498) was 64.3 µM (inactive).

`C[C@@H]1CC2(N=CCS2)[C@]2(O)O[C@@H]3C[C@@]4(C)[C@H](C[C@H]3O[C@@H]2O1)C[C@H]1O[C@]12[C@@H]4[C@H](O)C(=O)[C@]1(C)C(C3=CC(=O)OC3)CC[C@]21O` (some centres not stated) was tested, and the GI50 (786-0) was < 0.01 µM (active), the GI50 (A498) was 0.0138 µM (active) and the GI50 (ACHN) was < 0.01 µM (active). For the same compound, the GI50 (CAKI-1) was 0.011 µM (active), the GI50 (CCRF-CEM) was < 0.01 µM (active) and the GI50 (COLO 205) was 0.0304 µM (active). The GI50 (DLD-1) was < 0.01 µM (active), the GI50 (DMS-114) was < 0.01 µM (active) and the GI50 (DMS-273) was < 0.01 µM (active). For the same compound, the GI50 (HCC 2998) was 0.0281 µM (active), the GI50 (HCT-116) was < 0.01 µM (active) and the GI50 (HL-60) was 0.0123 µM (active). For the same compound, the GI50 (HOP-62) was < 0.01 µM (active), the GI50 (HOP-92) was 0.0306 µM (active) and the GI50 (IGROV-1) was 0.0254 µM (active). For the same compound, the GI50 (K562) was 0.0194 µM (active), the GI50 (LOX IMVI) was 0.0114 µM (active) and the GI50 (LXFL 529) was < 0.01 µM (active). For the same compound, the GI50 (M14) was 0.0227 µM (active), the GI50 (M19-MEL) was 0.0282 µM (active) and the GI50 (MOLT-4) was < 0.01 µM (active). For the same compound, the GI50 (Malme-3M) was 0.0129 µM (active), the GI50 (NCI-H226) was 0.0292 µM (active) and the GI50 (NCI-H23) was < 0.01 µM (active). For the same compound, the GI50 (NCI-H522) was < 0.01 µM (active), the GI50 (OVCAR-4) was < 0.01 µM (active) and the GI50 (RPMI-8226) was 0.022 µM (active). For the same compound, the GI50 (RXF 631) was 0.0251 µM (active), the GI50 (SF-268) was < 0.01 µM (active) and the GI50 (SF-539) was < 0.01 µM (active). For the same compound, the GI50 (SK-MEL-28) was 0.0255 µM (active), the GI50 (SK-MEL-2) was 0.0264 µM (active) and the GI50 (SK-OV-3) was 0.0314 µM (active). For the same compound, the GI50 (SN12C) was < 0.01 µM (active), the GI50 (SNB-75) was 0.0289 µM (active) and the GI50 (SNB-78) was 0.0132 µM (active). For the same compound, the GI50 (SR) was < 0.01 µM (active), the GI50 (UACC-62) was 0.0229 µM (active) and the GI50 (UO-31) was 0.0284 µM (active). For the same compound, the GI50 (XF498) was 0.0187 µM (active).

In the case of `CCCCN(CCCC)C(=O)/C(CC(=O)c1cccc2ccccc12)=N\NC(=O)c1cc2ccccc2cc1O`, the GI50 (786-0) is reported as 20.3 µM (inactive), the GI50 (A549) is reported as 21.1 µM (inactive) and the GI50 (ACHN) is reported as 16.9 µM (inactive). For the same compound, the GI50 (CCRF-CEM) was 3.94 µM (inactive), the GI50 (COLO 205) was 23 µM (inactive) and the GI50 (DLD-1) was 23.4 µM (inactive). For the same compound, the GI50 (EKVX) was 21.6 µM (inactive), the GI50 (HCC 2998) was 16.3 µM (inactive) and the GI50 (HCT-116) was 13.1 µM (inactive). For the same compound, the GI50 (HL-60) was 3.2 µM (inactive), the GI50 (HOP-62) was 20 µM (inactive) and the GI50 (HOP-92) was 19.2 µM (inactive). For the same compound, the GI50 (HT-29) was 23.8 µM (inactive), the GI50 (IGROV-1) was 15.3 µM (inactive) and the GI50 (KM-20L2) was 22.1 µM (inactive). For the same compound, the GI50 (KM12) was 24.8 µM (inactive), the GI50 (LOX IMVI) was 13 µM (inactive) and the GI50 (LXFL 529) was 27.3 µM (inactive). The GI50 (M14) was 21.9 µM (inactive), the GI50 (M19-MEL) was 20.4 µM (inactive) and the GI50 (MOLT-4) was 7.83 µM (inactive). For the same compound, the GI50 (Malme-3M) was 16.9 µM (inactive), the GI50 (NCI-H226) was 19.9 µM (inactive) and the GI50 (NCI-H23) was 19.9 µM (inactive). For the same compound, the GI50 (NCI-H460) was 18.4 µM (inactive), the GI50 (OVCAR-3) was 14.4 µM (inactive) and the GI50 (OVCAR-4) was 25.6 µM (inactive). The GI50 (OVCAR-5) was 30.3 µM (inactive), the GI50 (OVCAR-8) was 16.4 µM (inactive) and the GI50 (RPMI-8226) was 3.52 µM (inactive). The GI50 (RXF 393) was 24.8 µM (inactive), the GI50 (RXF 631) was 26.7 µM (inactive) and the GI50 (SF-268) was 11.2 µM (inactive). The GI50 (SF-295) was 18.3 µM (inactive), the GI50 (SK-MEL-28) was 26 µM (inactive) and the GI50 (SK-MEL-2) was 14.1 µM (inactive). The GI50 (SK-MEL-5) was 13.5 µM (inactive), the GI50 (SN12C) was 18.5 µM (inactive) and the GI50 (SNB-19) was 26.1 µM (inactive). The GI50 (SNB-75) was 13.4 µM (inactive), the GI50 (SNB-78) was 24.7 µM (inactive) and the GI50 (SW-620) was 32 µM (inactive). The GI50 (TK-10) was 40.1 µM (inactive), the GI50 (U-251) was 19.3 µM (inactive) and the GI50 (UACC-257) was 21.1 µM (inactive). The GI50 (UACC-62) was 6.85 µM (inactive), the GI50 (UO-31) was 10.1 µM (inactive) and the GI50 (XF498) was 20 µM (inactive).

Source: ChEMBL document CHEMBL1201862, “PubChem BioAssay data set” (2004)
